# Data as given in patent publication EP0291696A2, “Process of multiplication of epithelial cells” (Battelle-Institut e.V., priority 1987, dated 1988).
# Experiments:
# Keratinozyten [1] = assay: Keratinocyte culture with FCS or Nu-Serum: cell count after 12 days and days to confluence (Beispiel 3); assay type: cell-based, human
# Description: Kerationozyten wurden durch Trypsinierung von Haut nach der Methode von M. Green (Green, M. et al, PNAS 76 (1979) 5665) gewonnen und in einer Zelldichte von 2,5 x 10 ⁴ Zellen/cm² ausgesät. Die Hautproben in den Beispielen 1, 2 und 3 stammten von Patienten die zwischen 30 und 40 Jahre alt waren. Zusätzlich wurden die Kulturen mit 2 x 10 ⁴ Zellen/cm² letal bestrahlter 3T3-Fibroblasten inokuliert, beschrieben im US-Patent 4,016,036.
# Als Medium diente eine Mischung aus DMEM und HAM's F 12 (3:1) mit folgenden Zusätzen: Hydrocortison 0,4 ug/ml Insulin 5 ug/ml Triiodo-Thyronin 2x10⁻⁹M Transferrin 5 ug/ml Adenin 8 x 10⁻⁴ M Gentamycin, Penicillin, Streptomycin je 50 ug/ml Fötales Kälberserum 10 % EGF (nach 2 Tagen) 10 ng/ml
# In diesem Experiment, das wie unter Beispiel 1 beschrieben durchgeführt wurde, wurden verschiedene Forskolinkonzentrationen unter Verwendung bzw. in Vergleich von 10 % fötalem Kälberserum (FCS) und einem synthetischen Serum der Firma Biomedica Wien (Nu-Serum Nr. 1) untersucht.
# Keratinozyten [2] = assay: Keratinocyte culture: cell count after 12 days and days to confluence (Beispiel 2); assay type: cell-based, human
smiles,measurement,setting,value
C=C[C@@]1(C)CC(=O)[C@]2(O)[C@@]3(C)[C@@H](O)CCC(C)(C)[C@@H]3[C@H](O)[C@H](OC(C)=O)[C@@]2(C)O1 [Forskolin],Anzahl der Tage bis zur Konfluenz,"Keratinozyten [1]; FCS, 5x10^-5M",18 Tage
same,Zellzahl nach 12 Tagen in einer 25cm^2 Kultur-schale,"Keratinozyten [1]; FCS, 5x10^-5M",16 x 10^5
same,Anzahl der Tage bis zur Konfluenz,"Keratinozyten [1]; FCS, 5x10^-6M",15 Tage
same,Zellzahl nach 12 Tagen in einer 25cm^2 Kultur-schale,"Keratinozyten [1]; FCS, 5x10^-6M",24 x 10^5
same,Anzahl der Tage bis zur Konfluenz,"Keratinozyten [1]; FCS, 10^-5M",14 Tage
same,Zellzahl nach 12 Tagen in einer 25cm^2 Kultur-schale,"Keratinozyten [1]; FCS, 10^-5M",32 x 10^5
same,Anzahl der Tage bis zur Konfluenz,"Keratinozyten [1]; FCS, 10^-6M",20 Tage
same,Zellzahl nach 12 Tagen in einer 25cm^2 Kultur-schale,"Keratinozyten [1]; FCS, 10^-6M",14 x 10^5
same,Anzahl der Tage bis zur Konfluenz,"Keratinozyten [1]; Nu-Serum, 5x10^-5M",18 Tage
same,Zellzahl nach 12 Tagen in einer 25cm^2 Kultur-schale,"Keratinozyten [1]; Nu-Serum, 5x10^-5M",13 x 10^5
same,Anzahl der Tage bis zur Konfluenz,"Keratinozyten [1]; Nu-Serum, 5x10^-6M",16 Tage
same,Zellzahl nach 12 Tagen in einer 25cm^2 Kultur-schale,"Keratinozyten [1]; Nu-Serum, 5x10^-6M",25 x 10^5
same,Anzahl der Tage bis zur Konfluenz,"Keratinozyten [1]; Nu-Serum, 10^-5M",15 Tage
same,Zellzahl nach 12 Tagen in einer 25cm^2 Kultur-schale,"Keratinozyten [1]; Nu-Serum, 10^-5M",27 x 10^5
same,Anzahl der Tage bis zur Konfluenz,"Keratinozyten [1]; Nu-Serum, 10^-6M",20 Tage
same,Zellzahl nach 12 Tagen in einer 25cm^2 Kultur-schale,"Keratinozyten [1]; Nu-Serum, 10^-6M",14 x 10^5
same,Anzahl der Tage bis zur Konfluenz,Keratinozyten [2]; 5x10^-5M,18 Tage
same,Zellzahl nach 12 Tagen in einer 25cm^2 Kultur-schale,Keratinozyten [2]; 5x10^-5M,13 x 10^5
same,Anzahl der Tage bis zur Konfluenz,Keratinozyten [2]; 5x10^-6M,14 Tage
same,Zellzahl nach 12 Tagen in einer 25cm^2 Kultur-schale,Keratinozyten [2]; 5x10^-6M,23 x 10^5
same,Anzahl der Tage bis zur Konfluenz,Keratinozyten [2]; 10^-5M,14 Tage
same,Zellzahl nach 12 Tagen in einer 25cm^2 Kultur-schale,Keratinozyten [2]; 10^-5M,25 x 10^5
same,Anzahl der Tage bis zur Konfluenz,Keratinozyten [2]; 10^-6M,18 Tage
same,Zellzahl nach 12 Tagen in einer 25cm^2 Kultur-schale,Keratinozyten [2]; 10^-6M,12 x 10^5
same,Anzahl der Tage bis zur Konfluenz,Keratinozyten [2]; 10^-7M,24 Tage
same,Zellzahl nach 12 Tagen in einer 25cm^2 Kultur-schale,Keratinozyten [2]; 10^-7M,8 x 10^5
same,Zellzahl nach 12 Tagen in einer 25cm^2 Kultur-schale,Keratinozyten [2]; 10^-8M,"2,5 x 10^5"
same,Reduction of the Zeit bis zum Erreichen einer konfluenten Keratinozytenkultur im Vergleich zu Cholera Toxin,Keratinozyten [2]; Forskolin 5 x 10⁻⁶ bzw. 10⁻⁵ in the medium,≤ 40%
